Source: US7312245B2 (priority 2001, dated 2007)
Where two headings read alike, the source gives them in different places.

Key:
Format in all cases: in vivo
Pyricularia oryzae [1] = details: spray application of wettable powder diluted to 500 ppm; rice Koshihikari 2-leaf stage; spray-inoculated with Pyricularia oryzae spores; examined after 7 days
Pyricularia oryzae [2] = details: nursery box treated with granules 50 g per box; rice Koshihikari; inoculated 30 days after transplantation; lesions counted after 1 week
Pyricularia oryzae [3] = details: granules applied to water surface at 3 kg/10 ares; rice Koshihikari; inoculated 30 days after application; lesions checked after 1 week

Compound | Grade of Effect (preventive value, rice blast controlling effect) (Pyricularia oryzae [1]) | Grade of Effect (preventive value, rice blast controlling effect) (Pyricularia oryzae [2]) | Grade of Effect (preventive value, rice blast controlling effect) (Pyricularia oryzae [3])
Cc1ccc(C(=O)NCC(NC(=O)OCc2ccco2)C(C)C)cc1 (stereo not drawn) [compound 1126] | A (100%) | A (From 80% to 100%) | A (From 80% to 100%)
Cc1ccc(C(=O)NCC(NC(=O)OCc2ccoc2)C(C)C)cc1 (stereo not drawn) [compound 1141] | A (100%) | A (From 80% to 100%) | A (From 80% to 100%)
Cc1ccc(C(=O)NCC(NC(=O)OCC(C)C)C(C)C)cc1 (stereo not drawn) [compound 387] | A (100%) | A (From 80% to 100%) | A (From 80% to 100%)
CSCCOC(=O)NC(CNC(=O)c1ccc(C)cc1)C(C)C (stereo not drawn) [compound 1261] | A (100%) | A (From 80% to 100%) | A (From 80% to 100%)
Cc1ccc(C(=O)NCC(NC(=O)OC(C)C)c2ccc(Cl)cc2)cc1 (stereo not drawn) [compound 284] | A (100%) | A (From 80% to 100%) | A (From 80% to 100%)
CCc1ccc(C(=O)NCC(NC(=O)OC(C)C)C(C)C)cc1 (stereo not drawn) [compound 241] | A (100%) | A (From 80% to 100%) | A (From 80% to 100%)
Cc1ccc(C(=O)NCC(NC(=O)OCC(C)(C)C)C(C)C)cc1 (stereo not drawn) [compound 1201] | A (100%) | A (From 80% to 100%) | A (From 80% to 100%)
Cc1ccc(C(=O)NCC(NC(=O)OC(C)C(C)C)C(C)C)cc1 (stereo not drawn) [compound 1231] | A (100%) | A (From 80% to 100%) | A (From 80% to 100%)
C=CCOC(=O)NC(CNC(=O)c1ccc(C)cc1)C(C)C (stereo not drawn) [compound 742] | A (100%) | A (From 80% to 100%) | A (From 80% to 100%)
Cc1ccc(C(=O)NCC(NC(=O)OC(C)C)C(C)C)cc1 (stereo not drawn) [compound 240] | A (100%) | A (From 80% to 100%) | A (From 80% to 100%)
O=C(NC(CNC(=O)c1ccccc1)c1ccccc1)OCc1ccccc1 (stereo not drawn) [compound 636, N-(benzyloxycarbonyl)-N′-benzoyl-1-phenyl-1,2-ethylenediamine] | A (100%) | A (From 80% to 100%) | A (From 80% to 100%)
CC(C)OC(=O)NC(CNC(=O)c1ccccc1)C(C)C (stereo not drawn) [compound 236] | A (100%) | A (From 80% to 100%) | A (From 80% to 100%)
CC(C)C(CNC(=O)c1ccc(Cl)cc1)NC(=O)OCC1CC1 (stereo not drawn) [compound 1183] | A (100%) | A (From 80% to 100%) | A (From 80% to 100%)
CC(C)C(CNC(=O)c1ccc(Cl)cc1)NC(=O)OCC1CCCO1 (stereo not drawn) [compound 1153] | A (100%) | A (From 80% to 100%) | A (From 80% to 100%)
Cc1ccc(C(=O)NCC(NC(=O)OCC2CCCO2)C(C)C)cc1 (stereo not drawn) [compound 1156] | A (100%) | A (From 80% to 100%) | A (From 80% to 100%)
COC(=O)NC(CNC(=O)c1ccccc1)C(C)C (stereo not drawn) [compound 26] | A (100%) | A (From 80% to 100%) | A (From 80% to 100%)
CC(C)C(CNC(=O)c1ccccc1)NC(=O)OCc1ccccc1 (stereo not drawn) [compound 596] | A (100%) | A (From 80% to 100%) | A (From 80% to 100%)
CC(C)C(CNC(=O)c1ccc(Cl)cc1)NC(=O)OCc1ccc(Cl)cc1 (stereo not drawn) [compound 1063] | A (100%) | A (From 80% to 100%) | A (From 80% to 100%)
Cc1ccc(C(=O)NCC(C)(NC(=O)OC(C)(C)C)C(C)C)cc1 (stereo not drawn) [compound 469] | B (80% or more and less than 100%) | B (50% or more and less than 80%) | B (50% or more and less than 80%)
Cc1ccc(C(=O)NCC(NC(=O)OC(C)C)C(C)C)s1 (stereo not drawn) [compound 243] | A (100%) | A (From 80% to 100%) | A (From 80% to 100%)
Cc1ccc(C(=O)NCC(NC(=O)OC(C)(C)C)c2ccccc2)cc1 (stereo not drawn) [compound 504, N-(t-butoxycarbonyl)-N′-(4-methylbenzoyl)-1-phenyl-1,2-ethylenediamine] | B (80% or more and less than 100%) | B (50% or more and less than 80%) | B (50% or more and less than 80%)
CC(OC(=O)NC(CNC(=O)c1ccc(Cl)cc1)C(C)C)c1ccccc1 (stereo not drawn) [compound 1078] | A (100%) | A (From 80% to 100%) | A (From 80% to 100%)
Cc1ccc(C(=O)NCC(C)(NC(=O)OC(C)c2ccccc2)C(C)C)cc1 (stereo not drawn) [compound 1081] | A (100%) | A (From 80% to 100%) | A (From 80% to 100%)
Cc1ccc(C(=O)NCC(C)NC(=O)OC(C)C)cc1 (stereo not drawn) [compound 215] | A (100%) | A (From 80% to 100%) | A (From 80% to 100%)
Cc1ccc(C(=O)NCC(Cc2ccccc2)NC(=O)OC(C)C)cc1 (stereo not drawn) [compound 289] | A (100%) | A (From 80% to 100%) | A (From 80% to 100%)
CC(CNC(=O)c1ccccc1)NC(=O)c1ccccc1 (stereo not drawn) [Formula (7), reference compound] | D (less than 50%) | C (less than 50%) | C (less than 50%)
